Assays:
[1] = tested on: L5178-S (LY-S) murine lymphoma tumors; assay: Detection by DDC of tumor cell apoptosis in lymphoma-bearing mice after Taxol; assay type: in vivo; conditions: Taxol 20 mg/kg treated vs control animals; DDC i.v. 24 h after Taxol, sacrifice 2 h later
Description: (§1) A. Administration of DDC in-vivo: Injection of 200 μl of DDC intravenously. Following 1-2 hours, animal is sacrificed, and the desired organ is placed in a test tube or on a small plate, suitable for liquid nitrogen freezing. The plate is then covered with an aluminum foil, and transferred to liquid nitrogen. Following 5-30 minutes the specimen is being frozen to −80° C. and kept at −80° C. for at least 16 hr. B. Analysis of the Specimen: • a. Whole organ imaging Ex-vivo whole organ fluorescence imaging may be carried out on freshly excised specimen, that can be analyzed under a stereomicroscope (such as Leica MZ FL III, Leica Switzerland). DDC may be visualized using 360cx and >420cm nm filter set. Emitted fluorescence can be imaged using appropriate camera and software, such as a Leica DC 300F Distal camera and images can be processed and analyzed by Leica QWin Lite software. • b. Histological analysis, from the frozen organ or tissue, 4 μm cryosections are prepared on slides. Analysis of the tissue sections can be performed using a fluorescence microscope with a UV filter characterized by excitation at 360-370 nm (band pass) and emission at 420 nm (barrier filter) In case that staining of the examined tissue is desired, the following procedures can be applied: […]

[2] = tested on: neuronal cells of the injured brain area; assay: Detection by DDC of apoptosis following traumatic brain injury (TBI); assay type: in vivo, mice; conditions: DDC 24 hr after traumatic injury, brain excised after 2 hr
Description: A. Administration of DDC in-vivo: Injection of 200 μl of DDC intravenously. Following 1-2 hours, animal is sacrificed, and the desired organ is placed in a test tube or on a small plate, suitable for liquid nitrogen freezing. The plate is then covered with an aluminum foil, and transferred to liquid nitrogen. Following 5-30 minutes the specimen is being frozen to −80° C. and kept at −80° C. for at least 16 hr. B. Analysis of the Specimen: • a. Whole organ imaging Ex-vivo whole organ fluorescence imaging may be carried out on freshly excised specimen, that can be analyzed under a stereomicroscope (such as Leica MZ FL III, Leica Switzerland). DDC may be visualized using 360cx and >420cm nm filter set. Emitted fluorescence can be imaged using appropriate camera and software, such as a Leica DC 300F Distal camera and images can be processed and analyzed by Leica QWin Lite software. • b. Histological analysis, from the frozen organ or tissue, 4 μm cryosections are prepared on slides. Analysis of the tissue sections can be performed using a fluorescence microscope with a UV filter characterized by excitation at 360-370 nm (band pass) and emission at 420 nm (barrier filter) In case that staining of the examined tissue is desired, the following procedures can be applied:
TBI model was performed on Balb/C, 8-9 weeks old, according to the protocol detailed in Yun Chen et al., 1996. […]

[3] = tested on: tubular epithelial cells of the septic kidney; assay: Focal uptake of DDC in the septic kidney (cecal ligature and perforation); assay type: in vivo, mice; conditions: 24 h after cecal ligature and puncture
Description: as §1

[4] = tested on: C26 colon carcinoma cells; assay: Time course of DDC binding to C26 colon carcinoma cells treated with BiCNU; assay type: cell-based; conditions: 0.5 mM BiCNU for 2 hr
Description: For microscopic analysis the concentration of cells should be within 1-2×10^7/ml. […] If fixation is needed, it should be performed after DDC staining. • 1. Adjusting the cells to 1-2×10^7/ml in buffer. • 2. Transferring 96 μl from the cell suspension to an eppendorf and staining the cells by adding 4 μl from the DDC solution. Incubating for 10-40 minutes at RT protected from light. • 3. A double labeling could be conducted with PI, if desired. In such a case, 1 μl is added from the PI solution. • 4, Placing the cell suspension on a glass slide. Covering the cells with a glass coverslip. Alternatively, for analyzing adherent cells, cells may grow directly on coverslip. Staining the cells by incubation with DDC (4 μl of DDC/96 μl buffer reaction) or 10-40 minutes and PI (1 μl). Covering the slide with a coverslip and visualizing the cells. If desired, at that point the cells can be washed and fixed in 1% formaldehyde before visualization. Mounting should be done in a solution of 50% glycerol/PBS (v/v). • 5. Observing the cells under fluorescent or confocal microscope equipped with the appropriate UV filter (excitation at 360-370 nm, band pass, and emission at 420 nm, barrier filter. Using a Triple filter (Hoechst/FITC/Texas Red) allows concomitant observation of both DDC and PI. Quantitative Assay for DDC Accumulation using Fluorescene Spectroscopy […]

[5] = tested on: C26 colon carcinoma cells; assay: Staining by DDC of C26 colon carcinoma cells treated with BiCNU, fluorescent microscopy; assay type: cell-based
Description: For microscopic analysis the concentration of cells should be within 1-2×10^7/ml. […] If fixation is needed, it should be performed after DDC staining. • 1. Adjusting the cells to 1-2×10^7/ml in buffer. • 2. Transferring 96 μl from the cell suspension to an eppendorf and staining the cells by adding 4 μl from the DDC solution. Incubating for 10-40 minutes at RT protected from light. • 3. A double labeling could be conducted with PI, if desired. In such a case, 1 μl is added from the PI solution. • 4, Placing the cell suspension on a glass slide. Covering the cells with a glass coverslip. Alternatively, for analyzing adherent cells, cells may grow directly on coverslip. Staining the cells by incubation with DDC (4 μl of DDC/96 μl buffer reaction) or 10-40 minutes and PI (1 μl). Covering the slide with a coverslip and visualizing the cells. […] Observing the cells under fluorescent or confocal microscope equipped with the appropriate UV filter (excitation at 360-370 nm, band pass, and emission at 420 nm, barrier filter. Using a Triple filter (Hoechst/FITC/Texas Red) allows concomitant observation of both DDC and PI. Quantitative Assay for DDC Accumulation using Fluorescene Spectroscopy
26 colon carcinoma cells were treated with 0.5 mM BiCNU for 2 hr and stained with DDC (as detailed in the DDC protocols IIIC). Cells were analyzed by fluorescent microscope under a UV filter.

[6] = tested on: hepatocytes (liver sections); assay: Detection by DDC in vivo of liver-cell apoptosis induced by anti-Fas antibody; design: species or system mice
Description: Selective detection of apoptotic cells in vivo has numerous diagnostic and therapeutic clinical applications. […] Treatment of mice with anti-Fas monoclonal agonistic antibody induces apoptosis of hepatocytes, leading to animal death of within several hours. The study included intravenous administration of DDC to anti-Fas-Ab-injected mice, as well as to control, untreated animals. Fluorescence histopathological studies were then performed to evaluate the level of DDC binding.
Five-week-old male BALB/c mice were injected intravenously with 10 μg/animal of purified hamster anti-Fas nAb. Mice were then injected intravenously with 70 mg/Kg of DDC. Injections were performed 30 minutes after antibody treatment. Control animals were injected with DDC only, without antibody administration. All animals were sacrificed three hours after administration of the antibody, followed by organ removal. Liver was sectioned transversely across the mid-portion of each lobe, dipped immediately into liquid nitrogen, and then transferred to −80° C. for 24 hours. Organs were then transferred into OCT solution, and cryosections (5 μm) were prepared. These sections were taken for fluorescent microscopy. Parallel sections were stained with hematoxylin/eosin (H&E), for simultaneous evaluation of the characteristic apoptotic morphology of the cells manifesting DDC binding.

## CN(C)c1cccc2c(S(=O)(=O)NC(CSSCC(NS(=O)(=O)c3cccc4c(N(C)C)cccc34)C(=O)O)C(=O)O)cccc12 (stereo not drawn) [DDC]
[1]
  DDC uptake into tumors: marked increase of DDC uptake
[2]
  correlation of DDC staining with H&E staining: correlated with H&E staining
[3]
  DDC staining versus TUNEL staining: detected early apoptotic cells where TUNEL staining is still negative
[3]; compared with H&E
  identification of focal tubular cell injury: clearly identified by DDC staining
[4]
  time to staining of apoptotic cells: ≤ 40 s
[5]; 0.5 mM BiCNU for 2 hr
  stained cells in culture: marked increase in the number of the stained cells
[5]; control culture
  stained cells in culture: small percentage of stained cells
[6]; animals treated with anti-Fas Ab 10 μg/animal, 70 mg/Kg DDC i.v.
  binding of DDC in liver sections: marked, specific binding
[6]; control animals, 70 mg/Kg DDC i.v. only
  binding of DDC in liver sections: no significant binding

From patent US7510825B2, “Kits and methods for detection of apoptotic cells” (NST NeuroSurvival Technologies Ltd, priority 2000, dated 2009)
